Where two headings read alike, the source gives them in different places.

The assay concerns the target T1, recombinant human G9a protein (Homo sapiens, UniProt Q96KQ7).
T1 construct: purchased BPS Bioscience Inc. #51001
T1 sequence (Q96KQ7 785-1210 limits assumed): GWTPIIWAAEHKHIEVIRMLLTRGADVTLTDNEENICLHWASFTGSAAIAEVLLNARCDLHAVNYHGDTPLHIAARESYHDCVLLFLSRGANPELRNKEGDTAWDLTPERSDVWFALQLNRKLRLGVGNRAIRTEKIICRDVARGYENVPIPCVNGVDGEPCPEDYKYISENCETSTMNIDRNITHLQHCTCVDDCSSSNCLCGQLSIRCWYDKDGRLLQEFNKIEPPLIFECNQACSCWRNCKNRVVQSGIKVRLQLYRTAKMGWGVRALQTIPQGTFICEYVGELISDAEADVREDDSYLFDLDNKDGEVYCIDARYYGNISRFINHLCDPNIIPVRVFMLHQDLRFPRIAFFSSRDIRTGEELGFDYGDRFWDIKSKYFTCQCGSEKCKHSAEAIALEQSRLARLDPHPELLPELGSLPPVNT
As to the kind of experiment: G9a inhibitory activity test (ALPHA). It counts as biochemical. On the procedure:
The G9a inhibitory activity of each compound was evaluated by measuring the enzymatic activity of G9a by amplified luminescence proximity homogeneous assay (ALPHA). First, 7.5 μL of a dilution of recombinant human G9a protein (BPS Bioscience Inc., #51001) diluted to 0.05 to 0.1 nM with a Tris buffer solution (50 mM Tris-HCl [pH 9.0], 50 mM NaCl, 0.01% Tween-20, 1 mM DTT), and 0.5 μL of the test compound were added to each well of a 384-well microplate (AlphaPlate-384 Shallow Well, PerkinElmer, Inc., #6008359), mixed by vortex, and incubated at room temperature for 10 minutes. 500 nM biotinylated histone H3 peptide (1-21) (AnaSpec Inc., #61702) and 150 μM SAM (Sigma-Aldrich Co. LLC, #A7007) were mixed at 1:1 in advance, and 2 μL of the mixture was added to each well, mixed by vortex, and then incubated at room temperature for 1 hour. AlphaLISA anti-H3K9me2 acceptor beads (PerkinElmer, Inc., #AL117C) and AlphaScreen streptavidin donor beads (PerkinElmer, Inc., #6760002B) were each diluted with an epigenetic buffer (PerkinElmer, Inc., AlphaLISA Epigenetics Buffer Kit #AL008C) to a final concentration of […] after addition. These dilutions were added to the reaction solution in the dark and incubated at room temperature for 1 hour in the dark. Then, measurement was performed using the EnSpire Alpha plate reader (PerkinElmer, Inc., Waltham, Mass., USA). The G9a inhibitory activity of the test compound was calculated as a compound concentration necessary for suppressing G9a enzymatic activity by 50% (IC50 value), by determining the percent inhibition of the compound when the value of a control without the addition of the compound was defined as 0% and the value of a control without the addition of the enzyme was defined as 100%.

The mark [1] stands for this setting: biotinylated histone H3 peptide (1-21), SAM, read-out: Inhibitory activity (G9a IC50 value).
The mark [2] stands for this setting: read-out: Inhibitory activity (G9a IC50).

Usually IC50 stands for the concentration that inhibits the measured activity by half. Take `COCc1ccc(NC(=O)C(CCC2CC2)NC(=O)c2[nH]c3c(c2C)C(=O)CC(C)(C)C3)cn1` (stereo not shown) [Example 1-60]: the IC50 under setting [1] was no less than 200 nM.
In the case of `CCCCC(NC(=O)c1[nH]c2c(c1C)C(=O)CC(C)(C)C2)C(=O)Nc1cccc(CN(CC)CC)c1` (stereo not shown) [Example 1-108], the IC50 under setting [1] was less than 50 nM.
For the compound `Cc1c(C(=O)NC(CCC2CC2)C(=O)N2CCc3cc(N4CCOCC4)ccc32)[nH]c2c1C(=O)CC(C)(C)C2` (stereo not shown) [Example 1-147], the IC50 under setting [2] is no less than 200 nM.
On to `COc1ccc(NC(=O)C(CCC2CC2)NC(=O)c2ccc(Nc3ccncc3)cn2)cn1` (stereo not shown) [Example 6-76], for which the IC50 under setting [2] is no less than 200 nM.
Same read-out and setting: the figure for `CCCCC(NC(=O)c1[nH]c2c(c1C)C(=O)CC(C)(C)C2)C(=O)NCc1ccc(CN2CCC(F)CC2)cc1` (stereo not shown) [Example 18-10] is less than 50 nM.
Take `CCCCC(NC(=O)c1[nH]c2c(c1C)C(=O)CC(C)(C)C2)C(=O)Nc1ccc(NC2CCN(C)CC2)nc1` (stereo not shown) [Example 1-5]: under setting [1], the IC50 is less than 50 nM.
Regarding `Cc1c(C(=O)NC(CCC2CC2)C(=O)N2CCc3cc(CN4CCCCC4)ccc32)[nH]c2c1C(=O)CC(C)(C)C2` (stereo not shown) [Example 1-129], under setting [2], the IC50 is no less than 200 nM.
With `CCCCC(NC(=O)c1[nH]c2c(c1C)C(=O)CC(C)(C)C2)C(=O)Nc1ccccc1C(F)(F)F` (stereo not shown) [Example 1-27], under setting [1], the IC50 was no less than 200 nM.
`CCCCC(NC(=O)c1ccc(N2CCN(C)CC2)cc1C)C(=O)Nc1ccc(OC2CCN(C)CC2)nc1` (stereo not shown) [Example 11-1, 2-methyl-4-(4-methylpiperazin-1-yl)-N-[1-[[6-(1-methylpiperidin-4yl)oxypyridin-3-yl]amino]-1-oxohexan-2-yl]benzamide]: the IC50 under setting [2] was no less than 200 nM.
With `CCCC[C@H](NC(=O)c1[nH]c2c(c1C(C)C)C(=O)CC(C)(C)C2)C(=O)N[C@@H](C)c1ccccc1` [Example 6-41], under setting [2], the IC50 fell in the range of 50 to 200 nM.
The same measure, in the same setting: the figure for `CCCCC(NC(=O)c1[nH]c2c(c1C)C(=O)CC(C)(C)C2)C(=O)Nc1cnccc1CC` (stereo not shown) [Example 6-22] is 50 to 200 nM; for `CCCCC(NC(=O)C(c1ccccc1)c1ccccc1)C(=O)Nc1ccc(OC)nc1` (stereo not shown) [Example 7, 2-[(2,2-diphenylacetyl)amino]-N-(6-methoxypyridin-3-yl)hexaneamide] it is 50 to 200 nM; for `COc1ccc(NC(=O)C(CCC2CC2)NC(=O)c2ccc(NCCN(C)C)cc2)cn1` (stereo not shown) [Example 6-66] it is no less than 200 nM.
On to `CCCCC(NC(=O)c1[nH]c2c(c1C)C(=O)CC(C)(C)C2)C(=O)Nc1cccc(C#N)c1` (stereo not shown) [Example 1-10], for which the IC50 under setting [1] was no less than 200 nM.
Same read-out and setting: the figure for `CCCCC(NC(=O)c1[nH]c2c(c1C)C(=O)CC(C)(C)C2)C(=O)NCc1ccccc1OC` (stereo not shown) [Example 1-44] is no less than 200 nM.
`CCCCC(NC(=O)c1[nH]c2c(c1C)C(=O)CC(C)(C)C2)C(=O)NCc1ccc(CN2CCCC(F)(F)C2)cc1` (stereo not shown) [Example 18-7]: the IC50 under setting [2] is no less than 200 nM.
For the compound `CCCCC(NC(=O)c1[nH]c2c(c1C)C(=O)CC(C)(C)C2)C(=O)NCc1ccc(CN2CCCC2)cc1` (stereo not shown) [Example 18-11], the IC50 under setting [2] was less than 50 nM.
On to `CCCCC(NC(=O)c1[nH]c2c(c1C)C(=O)CC(C)(C)C2)C(=O)Nc1ccc(CCN2CCCCC2)cc1` (stereo not shown) [Example 1-4], for which, under setting [1], the IC50 was less than 50 nM.
Consider `Cc1c(C(=O)NC(CCC2CC2)C(=O)Nc2ccc(C(F)(F)F)nc2)[nH]c2c1C(=O)CC(C)(C)C2` (stereo not shown) [Example 6-8], for which the IC50 under setting [2] lay within 50 to 200 nM.
The same measure, in the same setting: the figure for `CCCCC(NC(=O)c1[nH]c2c(c1C)C(=O)CC(C)(C)C2)C(=O)NCc1ccc(CCN)cc1` (stereo not shown) [Example 24-3] is less than 50 nM; for `CCOc1ccc(NC(=O)C(CCC2CC2)NC(=O)c2ccc(Nc3ccncc3)cc2)cn1` (stereo not shown) [Example 6-80] it is less than 50 nM; for `CCCCC(NC(=O)c1[nH]c2c(c1C)C(=O)CC(C)(C)C2)C(=O)NCc1cccc(CN(C)C)n1` (stereo not shown) [Example 4, N-[1-[[6-[(dimethylamino)methyl]pyridine-2yl]methylamino]-1-oxohexan-2-yl]-3,6,6-trimethyl-4-oxo-5,7-dihydro-1H-indole-2-carboxamide] it is no less than 200 nM.
Turning to `CCCC[C@@H](NC(=O)c1[nH]c2c(c1C)C(=O)CC(C)(C)C2)C(=O)N[C@H](C)c1ccccc1` [Example 2-4], the IC50 under setting [2] was no less than 200 nM.
Take `CCc1ccc(NC(=O)C(CCC2CC2)NC(=O)c2ccc(Nc3ccncc3)cc2)cn1` (stereo not shown) [Example 6-86]: under setting [2], the IC50 is less than 50 nM.
On the same count and under the same terms, the figure for `Cc1c(C(=O)NC(CCC2CC2)C(=O)Nc2ccc(F)nc2)[nH]c2c1C(=O)CC(C)(C)C2` (stereo not shown) [Example 6-12] is 50 to 200 nM; for `COc1ccc(NC(=O)C(CCC2CC2)NC(=O)c2ccc(-n3ccc4cnccc43)cc2)cn1` (stereo not shown) [Example 6-58] it is 50 to 200 nM; for `CCCC[C@H](NC(=O)c1[nH]c2c(c1C)C(=O)CC1(CCOCC1)C2)C(=O)N[C@@H](C)c1ccccc1` [Example 6-44] it is no less than 200 nM.
On to `Cc1c(C(=O)NC(C(=O)Nc2ccc(OC3CCN(C)CC3)nc2)c2ccccc2)[nH]c2c1C(=O)CC(C)(C)C2` (stereo not shown) [Example 1-86], for which, under setting [1], the IC50 is no less than 200 nM.
With `Cc1c(C(=O)NC(CCC2CC2)C(=O)N(C)Cc2ccc(CN(C)C)cc2)[nH]c2c1C(=O)CC(C)(C)C2` (stereo not shown) [Example 6-20], the IC50 under setting [2] was less than 50 nM.
With `Cc1c(C(=O)NC(CCC2CC2)C(=O)Nc2ccc(N(C)C)nc2)[nH]c2c1C(=O)CC(C)(C)C2` (stereo not shown) [Example 1-74], the IC50 under setting [1] was in the range of 50 to 200 nM.
In the case of `CCCC[C@H](NC(=O)c1[nH]c2c(c1C)C(=O)CC(C)(C)C2)c1nc2ccc(OCCN3CCOCC3)cc2[nH]1` [Example 37-2], under setting [2], the IC50 is no less than 200 nM.
Same read-out and setting: the figure for `Cc1c(C(=O)N[C@@H](CCC2CC2)C(=O)N(C)[C@H](C)c2ccccc2)[nH]c2c1C(=O)CC(C)(C)C2` [Example 13-3] is no less than 200 nM; for `COc1ccc2c(c1)CCN2C(=O)C(CCC1CC1)NC(=O)c1[nH]c2c(c1C)C(=O)CC(C)(C)C2` (stereo not shown) [Example 1-130] it is no less than 200 nM.
Still for that read-out and setting: the figure for `CCCCC(NC(=O)c1[nH]c2c(c1C)C(=O)CC(C)(C)C2)C(=O)Nc1ccc(OC2CNC2)cc1` (stereo not shown) [Example 26-6] is 50 to 200 nM.
Turning to `Cc1ccc2c(c1)CCN2C(=O)C(CCC1CC1)NC(=O)c1[nH]c2c(c1C)C(=O)CC(C)(C)C2` (stereo not shown) [Example 1-77], under setting [1], the IC50 was no less than 200 nM.
On the same count and under the same terms, the figure for `CCCCC(NC(=O)c1[nH]c2c(c1C)C(=O)CC(C)(C)C2)C(=O)Nc1cccc2c1CCCC2` (stereo not shown) [Example 1-93] is 50 to 200 nM.
As to `Cc1c(C(=O)NC(CCC2CC2)C(=O)N2CCc3ccc(CN4CCCC4)cc32)[nH]c2c1C(=O)CC(C)(C)C2` (stereo not shown) [Example 1-145], the IC50 under setting [2] is no less than 200 nM.
Still for that read-out and setting: the figure for `CCCCC(NC(=O)c1[nH]c2c(c1C)C(=O)CC(C)(C)C2)C(=O)Nc1ccc(N2CCCN(C)CC2)cc1` (stereo not shown) [Example 1-110] is 50 to 200 nM; for `CCCC[C@H](NC(=O)c1[nH]c2c(c1C)C(=O)CC(C)(C)C2)C(=O)N[C@H](C)c1ccccc1` [Example 2-3] it is 50 to 200 nM; for `Cc1c(C(=O)NC(CCC2CCC2)C(=O)Nc2ccccc2)[nH]c2c1C(=O)CC(C)(C)C2` (stereo not shown) [Example 6-24] it is no less than 200 nM.
Consider `Cc1cc(-n2ccc3cnccc32)ccc1C(=O)NC(CCC1CC1)C(=O)Nc1ccc(C#N)nc1` (stereo not shown) [Example 6-83], for which the IC50 under setting [2] is 50 to 200 nM.
For `CCc1ccccc1NC(=O)C(CCC1CC1)NC(=O)c1[nH]c2c(c1C)C(=O)CC(C)(C)C2` (stereo not shown) [Example 1-84], the IC50 under setting [1] is less than 50 nM.
The same measure, in the same setting: the figure for `CCCCC(NC(=O)c1[nH]c2c(c1C)C(=O)CC(C)(C)C2)C(=O)Nc1ccccc1C` (stereo not shown) [Example 1-13] is no less than 200 nM.
Take `CCCCC(NC(=O)c1ccc(N2CCN(C)CC2)cc1)C(=O)Nc1ccc(OC2CCN(C)CC2)nc1` (stereo not shown) [Example 6-98]: under setting [2], the IC50 was no less than 200 nM.
For the compound `COc1ccc(NC(=O)C(CCC2CC2)NC(=O)c2nc(-c3ccccc3)sc2C)cn1` (stereo not shown) [Example 6-54], under setting [2], the IC50 was no less than 200 nM.
For `CCCCC(NC(=O)c1nc(-c2ccccc2)sc1C)C(=O)Nc1ccc(OC2CCN(C)CC2)nc1` (stereo not shown) [Example 11-11], under setting [2], the IC50 is no less than 200 nM.
The same measure, in the same setting: the figure for `CCCC[C@H](NC(=O)c1[nH]c2c(c1C)C(=O)CC(C)(C)C2)C(=O)N[C@@H](CC)c1ccccc1` [Example 6-38] is less than 50 nM; for `Cc1c(C(=O)NC(CCC2CC2)C(=O)N2CCc3c(OCCCN(C)C)cccc32)[nH]c2c1C(=O)CC(C)(C)C2` (stereo not shown) [Example 1-119] it is no less than 200 nM.
On the same count and under the same terms, the figure for `CCCCC(NC(=O)c1[nH]c2ccc(OCC)cc2c1C)C(=O)Nc1ccc(OC2CCN(C)CC2)nc1` (stereo not shown) [Example 6-95] is no less than 200 nM.

These data come from patent publication US20230127046A1, “G9a INHIBITOR” (RIKEN, priority 2019, published 2023).
